Data as given in PubChem BioAssay AID2060355 (Molecular Pharmacology Branch, DTP, NCI, 2025).
“And” between values parts separate entries of the source, which are not always exact repeats. Equal values may be shown once.

Tested on: 485368-065-R4-J2-PDC spheroids with HUVEC/MSC, viability
Experiment: Anticancer human tumor 485368-065-R4-J2-PDC patient-derived pancreatic carcinoma cell line growth inhibition [TAK]
Details: for viability, T/C: stronger effect = lower value
Description: Combinatorial screen of targeted agents with TAK-243 and ipatasertib in multi-cell type tumor spheroids
A high-throughput screen of multi-cell type tumor spheroids was designed to identify active combinations of targeted small molecules and TAK-243 or ipatasertib. Complex spheroids include a stromal component modeled by human endothelial cells (HUVEC) and fibroblasts modeled by human mesenchymal stem cells (MSCs). The concentration ranges selected for each drug and investigational agent were based upon clinically achievable concentrations if the clinical Cmax of the agent was known.
Compounds. The drugs and investigational agents: TAK-243 (785004), ipatasertib (767898), everolimus (733504), selumetinib (741078), bortezomib (756655), trametinib (758246), ixazomib (758254), vemurafenib (761431), dabrafenib (764134), sapanisertib (764658), alpelisib (765974), and copanlisib (816437), were obtained from the National Cancer Institute (NCI) Developmental Therapeutics Program Chemical Repository. The FDA-approved anticancer drug set is available from the NCI Developmental Therapeutics Program. […] The stock solutions were prepared in dimethyl sulfoxide (DMSO, Sigma-Aldrich, St. Louis, MO, cat. D2650) at 800-fold the tested concentration and stored at -70 degrees C prior to their use. All drugs and investigational agents were tested over a range starting from a high concentration at or near the clinical Cmax and decreasing in half-log increments. If the clinical Cmax for an agent had not been determined, the highest concentration tested was 10 microM.
NCI60 Cell Culture. NCI60 cell lines were obtained from the NCI Developmental Therapeutics Program Tumor Repository. For each lot of cells, the Repository performed Applied Biosystems AmpFLSTR Identifiler testing with PCR amplification to confirm consistency with the published Identifier STR profile for each cell line. Cells were kept in continuous culture for no more than 20 passages. The optimal seeding densities for each of the cell lines at each time point assessed were determined prior to performing the concentration response studies. Briefly, the NCI60 human tumor lines were grown as monolayers in RPMI 1640 medium supplemented with 10% FBS and 2 mmol/L L-glutamine.
An additional 2 lines were from the NCI60 cell line panel including melanomas, MALME-3M and SK-MEL-2. Pooled donor human umbilical vein endothelial cells (HUVEC, Lonza, cat. CC-2519) and human mesenchymal stem cells (hMSC, Lonza, cat. PT-2501) were purchased from Lonza (Walkersville, MD).
PDMR cell lines were grown in complete medium (DC medium): Dulbecco's modified Eagle's medium (DMEM)/F12 supplemented with 5% fetal bovine serum (FBS), 2 mM L-glutamine, 100 U/mL penicillin and 100 µg/ml streptomycin, 0.4 µg/ml hydrocortisone, 10 ng/ml epidermal growth factor (EGF) recombinant human protein, 24 µg/mL adenine, and 0.1 mg/mL primocin. During culture from frozen stock vials, PDMR cells were cultured in the same medium containing 10 µM Y-27632 (see Table 3). The PDCs were cultured in complete DMEM/F12 media without 10 microM Y-27632 dihydrochloride for at least two passages prior to the screen. The pooled donor HUVEC and hMSC were cultured in endothelial cell growth medium 2 (PromoCell, Heidelberg, Germany, cat. C-22011) and mesenchymal stem cell growth medium 2 (PromoCell, cat. C-28009), respectively. For all experiments, HUVEC and hMSC were used at passages </=5.
For the pre-screen, cell seeding densities were determined from a titration spanning the range from 5,000 to 313 cells per well. The mct-spheroids including 60% malignant cells, 25% HUVEC and 15% MSC dispensed as a mixture into U-bottom Ultra-Low Attachment 384-well plates (Corning, NY)
High-throughput Drug Combination Screening.
Prior to their inoculation into 384-well plates, malignant cells, HUVEC, and hMSC were removed from T flasks using TrypLE express (Thermo Fisher Scientific, cat. 12605036) and harvested by centrifugation for 5 min at 233 x g. […]
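Also: spheroids exposed to compounds for seven days before readout.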
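For viability, T/C in this document: 100% = DMSO vehicle control wells.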

Row | Structure (SMILES) | IC50 (curve of compound) | viability, T/C (compound 0.0316 µM) | viability, T/C (compound 0.1 µM) | viability, T/C (compound 0.000316 µM) | viability, T/C (compound 0.001 µM) | viability, T/C (compound 0.00316 µM) | viability, T/C (compound 0.01 µM) | other results
1 | CC(=O)Nc1cccc(-n2c(=O)n(C3CC3)c(=O)c3c(Nc4ccc(I)cc4F)n(C)c(=O)c(C)c32)c1 | 5.19 nM and 10.4 nM |  |  |  |  |  |  | viability, T/C (compound 94.9 pM): 99.6% and 93%; viability, T/C (compound 0.0003 µM): 77.8% and 84%; viability, T/C (compound 0.000949 µM): 63.6% and 75.9%; viability, T/C (compound 0.003 µM): 62.5% and 71%; viability, T/C (compound 0.00949 µM): 45.7% and 50.3%; viability, T/C (compound 0.03 µM): 29.4% and 30.5%
2 | CC(C)(C)c1nc(-c2cccc(NS(=O)(=O)c3c(F)cccc3F)c2F)c(-c2ccnc(N)n2)s1 | > 10000 nM | 111% and 113% | 101% and 105% |  |  |  |  | viability, T/C (compound 0.316 µM): 84.3% and 89.6%; viability, T/C (compound 1 µM): 57.7% and 75.8%; viability, T/C (compound 3.16 µM): 57% and 60.5%; viability, T/C (compound 10 µM): 49.8% and 54.4%
3 | CC(C)CC(NC(=O)C(Cc1ccccc1)NC(=O)c1cnccn1)B(O)O (stereo not given) | 6.05 nM and 5.9 nM |  |  | 96.3% and 89.7% | 99% and 102% | 107% and 114% | 9.55% and 6.03% | viability, T/C (compound 31.6 pM): 108% and 103%; viability, T/C (compound 0.0001 µM): 101%
4 | CC(C)CC(NC(=O)CNC(=O)c1cc(Cl)ccc1Cl)B1OC(=O)CC(CC(=O)O)(C(=O)O)O1 (stereo not given) | 40.8 nM and 39.7 nM | 61.6% and 60.1% | 9.41% and 9.34% | 94.9% and 95.6% | 102% and 98.5% | 94.6% and 94.7% | 108% and 110% | 
5 | CC(C)NCC(C(=O)N1CCN(c2ncnc3c2C(C)CC3O)CC1)c1ccc(Cl)cc1 (stereo not given) |  |  |  |  |  |  |  | viability, T/C (compound 0.3 µM): 95.9% [middle of 10 runs]; viability, T/C (compound 0.949 µM): 94.7% [middle of 10 runs]; viability, T/C (compound 3 µM): 99.1% [middle of 10 runs]; viability, T/C (compound 9.49 µM): 91.6% [middle of 10 runs]; viability, T/C (compound 30 µM): 78% [middle of 10 runs]; IC50 (compound alone, run of 02/20/2020): > 30000 nM
6 | CC(C)n1nc(-c2ccc3oc(N)nc3c2)c2c(N)ncnc21 | 72.5 nM and 85 nM | 63.8% and 72.8% | 44.3% and 46.3% | 102% and 92.5% | 103% and 94.1% | 89.2% and 90.2% | 87.3% and 94.1% | 
7 | CCCS(=O)(=O)Nc1ccc(F)c(C(=O)c2c[nH]c3ncc(-c4ccc(Cl)cc4)cc23)c1F | > 100000 nM |  |  |  |  |  |  | viability, T/C (compound 0.316 µM): 110% and 92.4%; viability, T/C (compound 1 µM): 102% and 117%; viability, T/C (compound 3.16 µM): 89.2% and 101%; viability, T/C (compound 10 µM): 43.3% and 56.3%; viability, T/C (compound 31.6 µM): 99.8% and 46.6%; viability, T/C (compound 100 µM): 91.2% and 106%
8 | COC1CC2CCC(C)C(O)(O2)C(=O)C(=O)N2CCCCC2C(=O)OC(C(C)CC2CCC(OCCO)C(OC)C2)CC(=O)C(C)C=C(C)C(O)C(OC)C(=O)C(C)CC(C)C=CC=CC=C1C (stereo not given) | > 100 nM | 92.8% and 90.3% | 88.8% and 86.1% | 89.3% and 76.4% | 95.4% and 82.8% | 91.1% and 89.1% | 92.2% and 96.3% | 
